This note sets out measurements from patent EP0913397B1, “A proces for the synthesis of 1-(4-Arylpiperazine-1-y1)-3-(2-oxypyrrolidin/piperidin-1-yl)propanes as therapeutic agents for hypertension, ischemia, cardiovascular and other adrenergic receptors related disorders” (COUNCIL OF SCIENTIFIC AND INDUSTRIAL RESEARCH, priority 1997, dated 1999).

Some results are limits rather than exact numbers.

For test [1], the system named is anaesthetized (pentobarbitone sodium 35 mg/kg i.v.) cat. Kind of test: Effect on blood pressure and adrenaline vasopressure response in anaesthetized cat (Table 2). The format is in vivo. As for the experimental part: Table 2: Effect on blood pressure, heart rate and adrenaline vasopressure response at an anaesthetized (pentobarbitone sodium 35 mg/kg i.v.) cat.
(§1) • (a) Cats (2.6-4.0 kg) of either sex anaesthetized with pentobarbitone sodium ([…] i.v.) and showing basal mean arterial blood pressure below 150 mm (Hg) were categorised as normotensive and above 150 mm Hg as hypertensive. Arterial blood pressure (BP) was recorded from one of the carotid artery through a stathum P23 DC pressure transducer and 7P1 low level DC preamplifier on a Grass Model P7 Polygraph, Signals from 7P 1 preamplifier were used to trigger 7P4 Tachograph preamplifier for recording the heart rate (HR). Right femoral vein and Trachea were cannulated for intravenous injections and artificial ventilation respectively. Control responses to intravenous injection of noradrenaline (2-4 ug); acetyl choline (1-2 ug); histamine (1-2 ug) and isoprenaline (1-2 ug) were taken before and after the administration of test doses of each compounds.

A further test has as its system Normotensive cat. Kind of test: Effect on blood pressure, heart rate and adrenaline vasopressor response, anaesthetized normotensive cat. The format is in vivo. As to conditions: 10 uMol/kg i.d. As for the experimental part: (§2) 2. Effect on blood pressure, heart rate and adrenaline vasopressor response of anaesthetized (pentobarbitone sodium 40 & 60 mg/kg i.p. in cat and rat respectively) normotensive & hypertensive rat & cat model preparations.
as §1

The subject of test [2] is Isolated Guinea pig ileum preparation. Kind of test: Isolated Guinea pig ileum preparation, antihistaminic activity. As to conditions: 0.5-5.0 ug/ml.
Test [3] concerns Rat aortic ring preparation. Description: Rat aortic ring preparation, NE induced contraction.
The test system of the next test is cat. Description: In vivo drug antagonism studies in cat. As to conditions: 2 uMol dose i.v. in cat.
Test [4] deals with Hypertensive rat model preparation. Description: Effect on blood pressure, heart rate and adrenaline vasopressor response, anaesthetized hypertensive rat model preparation. The format is in vivo. Here is the method:
as §2, §1

Test [5] has as its system histamine induced bronchoconstriction. Kind of test: Konzett and Rossler preparation.
For another test, the system named is Isolated aortic strip. Description: Isolated aortic strip, endothelin induced contraction.
Test [6] deals with Langendorff perfused rat heart preparation. Kind of test: Cardioprotective activity, Langendorff perfused rat heart, prolonged period of ischemic insult. Here is the method:
Further, in Langendorff perfused rat heart preparation subjected to even up to 90 min. global ischemia, the compound at 0.001 ug/ml conc. given at the time of reperfusion revived normal rhythmic contraction started within 2 min. (Table 1) and incidence of reperfusion induced arrhythmia were abolished. Table 1: Compound administered at the time reperfusion at the dose of 0.001 ug/ml on prolong period (90min.) of ischemic insult.
The rats were killed by decapitation, heart were rapidly excised and placed in ice-cold HEPES tyrode buffer. Then isolated hearts were perfused retrogradely through coronary arteries using the Langendorff technique. The perfusion buffer consisted (in mM) NaCl 137, KCl 5.4, CaCl2 1.8, MgCl 2 1.0, glucose 11.2 and HEPES 3.0. The buffer (pH 7.4) was continuously gassed with oxygen and maintained at 37°C. Coronary flow rate was maintained at 10 ml/min. The heart contracted spontaneously. The perfused heart was allowed to equilibrate for 30 min. before initiation of any insult protocol. The test compounds were given at the time of reperfusion. Some of the compounds were dissolved in ethanol. Final concentration of ethanol in the perfusion buffer was 0.0001% and had no effect of its own on the parameter used. • (a) For brief period of ischemic insult (Hideo et al. Pathophysiology and pathogenesis of stunned myocardium. J. Clin. Invest., 79, 950-961, 1987). Ischemia was initiated by stopping the flow for 16 min. followed by 30 min. reperfusion period. The durations were decided on the initial pilot experiments leading to 50% recovery of function. • (b) For prolong period of ischemic insult (Becker, L.C. & Ambrosio, G. Myocardial consequences of reperfusion Prog. Cardiovas. Dis., 30, 23-44, 1987). Ischemia was initiated by stopping the flow for […] by 30 min. reperfusion.

[7] abbreviates: 0.001 ug/ml given at the time of reperfusion, up to 90 min. global ischemia.

Regarding `CCc1ccccc1N1CCN(CCCN2CCCCC2=O)CC1` [Ar=C6H4-2-C2H5, n=2, 1-[4-(Z-ethylphenyll)piperazin-1-yl]-3-[2-oxopiperidin-1-yl]propane], in [1] (2.0 umol/kg i.v.), the “B. P. fall %” value was determined as 35% and the Dur. was determined as 55 min. In [1] (10.0 umol/kg i.v.), the “Adrenaline vasopressure response % inhibition” value is recorded as “R (R=Reversal)”, the “B. P. fall %” value stood at 20% and the Dur. worked out at 63 min.
As for `O=C1CCCCN1CCCN1CCN(c2cccc(C(F)(F)F)c2)CC1` [Ar=C6H4-3-CF3, n=2, 1-[4-(3-trifluoromethylphenyl)piperazin-1-yl]-3-[2-oxopiperidin-1-yl]propane], in test [1] (10.0 umol/kg i.v.), the Dur. result is reported as “Tr”.
Regarding `CCc1ccc(N2CCN(CCCN3CCCC3=O)CC2)cc1` [Ar=C6H4-4-C2H5, n=1, 1-[4-(4-ethylphenyl)piperazin-1-yl]-3-[2-oxopyrrolidin-1-yl]propane], the Dur. entry in test [1] (2.0 umol/kg i.v.) is on record as “Tr”.
For `O=C1CCCN1CCCN1CCN(c2ccc(F)cc2)CC1` [Ar=C6H4-4-F, n=1, 1-[4-(4-fluorophenyl)piperazin-1-yl]-3-[2-oxopyrrolidin-1-yl]propane], the Heart rate Pre/post treatment (post) with Normotensive cat (post treatment) was 170 beats/min; in test [4] (5 uMol/kg i.d.) it was 320 beats/min; in [4] (10 uMol/kg i.d.) it was 340 beats/min. In addition, the Heart rate Pre/post treatment (pre) came out at 200 beats/min in the test with Normotensive cat (pre treatment) and 310 beats/min in test [4] (20 uMol/kg i.d., pre treatment). Moreover, the antihistaminic activity entry in [2] is recorded as “significant antihistaminic activity”. In addition, in test [3], the NE induced contraction result is on record as “inhibited”. Moreover, the “reduction of the fall in blood pressure” value in the test with cat (glibenclamide pretreatment) is recorded as “only partially reduced”. Also, the “reduction of antihypertensive effect” value with cat (pretreatment with Dup-753) was determined as 33%. Besides, the “alteration of antihypertensive effect” value with cat (pretreatment with atropine sulphate), in the test with cat (pretreatment with mepyramine maleate), with cat (pretreatment with propranolol) and in the test on cat (pretreatment with yohimbine) was “failed to alter” throughout. In [5], the “antihistaminic activity against histamine induced bronchoconstriction” value is given as “some antihistaminic activity”. Further, the Endothelin induced contraction entry in the test on Isolated aortic strip was “inhibited significantly”. In addition, the “Response to endothelin after washing the preparation” value with Isolated aortic strip (after washing) is reported as “relaxation rather than contraction”. Also, the “incidence of reperfusion induced arrhythmia” value in test [6] (setting [7]) was “abolished”. Besides, the “time to start of normal rhythmic contraction” value in [6] (setting [7]) is no more than 2 min.
`COC(=O)C1=C(C)NC(C)=C(C(=O)OC)C1c1ccccc1[N+](=O)[O-]` [Nifedipine, reference compound] gave an Onset in [6] (10^-6M, ischemic insult 45 min.) of 2.5 min.
